This is an account of results in ChEMBL document CHEMBL1133064, “1-[2-[(Heteroaryloxy)heteroaryl]carbamoyl]indolines: novel and selective 5-HT2C receptor inverse agonists with potential as antidepressant/anxiolytic agents” (Bioorg Med Chem Lett, 2000).

In general, Ki refers to a measure of affinity in units of concentration, obtained from inhibition or displacement. Low values mean higher affinity, high ones lower affinity.

Assay [1] addresses 5-hydroxytryptamine receptor 2A (Homo sapiens, UniProt P28223). Nature of the assay: Binding affinity towards human cloned 5-hydroxytryptamine 2A receptor of HEK293 cells by displacement of [3H]ketanserin. The assay is classed as cell-based.
In assay [2] the target is T1, 5-hydroxytryptamine receptor 2C (Homo sapiens, UniProt P28335).
T1 sequence (P28335 whole entry): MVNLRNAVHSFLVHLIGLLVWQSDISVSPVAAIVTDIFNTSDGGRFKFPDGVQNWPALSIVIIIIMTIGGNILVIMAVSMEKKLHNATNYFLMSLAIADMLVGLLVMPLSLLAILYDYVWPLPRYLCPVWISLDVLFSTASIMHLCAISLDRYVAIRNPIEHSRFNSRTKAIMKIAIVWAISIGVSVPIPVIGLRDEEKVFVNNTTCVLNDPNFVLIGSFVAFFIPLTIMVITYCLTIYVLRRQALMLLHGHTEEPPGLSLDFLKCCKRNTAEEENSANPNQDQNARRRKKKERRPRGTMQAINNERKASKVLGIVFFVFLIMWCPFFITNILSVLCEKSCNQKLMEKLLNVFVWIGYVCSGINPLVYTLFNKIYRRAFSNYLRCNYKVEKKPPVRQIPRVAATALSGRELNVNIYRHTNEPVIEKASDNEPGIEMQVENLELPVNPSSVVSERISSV
Put plainly: Binding affinity towards human cloned 5-hydroxytryptamine 2C receptor of HEK293 cells by displacement of [3H]mesulergine. It is filed as cell-based. On the technique in general: In a radioligand displacement assay an active substance lowers the binding of a labelled ligand.

The target of assay [3] is 5-hydroxytryptamine receptor 2B (Homo sapiens, UniProt P41595). Put plainly: Binding affinity towards human cloned 5-HT2B receptor of HEK293 cells by displacement of [3H]5-HT. The assay is classed as cell-based.
For assay [4], the target named is Serotonin 2 receptors; 5-HT2a & 5-HT2c (Homo sapiens) (UniProt P28223+P28335). Nature of the assay: Selectivity expressed as ratio of serotonin 5-HT2C receptor over serotonin 5-HT2A receptor. The assay is classed as protein assay.
Assay [5] addresses Serotonin receptor (2b and 2c) (Homo sapiens) (UniProt P41595+P28335). Put plainly: Selectivity expressed as ratio of serotonin 5-HT2C receptor over serotonin 5-HT2B receptor. It is filed as protein assay.
A further assay deals with Rattus norvegicus. Nature of the assay: Percent reversal of mCPP induced hypolocomotion after peroral administration at 5 mg/kg in rat. It is filed as functional. The conditions noted are these: route oral.

Structures are written as SMILES.

Chain of Serotonin 2 receptors; 5-HT2a & 5-HT2c (Homo sapiens) (P28223 whole entry, looked up, one chain of several): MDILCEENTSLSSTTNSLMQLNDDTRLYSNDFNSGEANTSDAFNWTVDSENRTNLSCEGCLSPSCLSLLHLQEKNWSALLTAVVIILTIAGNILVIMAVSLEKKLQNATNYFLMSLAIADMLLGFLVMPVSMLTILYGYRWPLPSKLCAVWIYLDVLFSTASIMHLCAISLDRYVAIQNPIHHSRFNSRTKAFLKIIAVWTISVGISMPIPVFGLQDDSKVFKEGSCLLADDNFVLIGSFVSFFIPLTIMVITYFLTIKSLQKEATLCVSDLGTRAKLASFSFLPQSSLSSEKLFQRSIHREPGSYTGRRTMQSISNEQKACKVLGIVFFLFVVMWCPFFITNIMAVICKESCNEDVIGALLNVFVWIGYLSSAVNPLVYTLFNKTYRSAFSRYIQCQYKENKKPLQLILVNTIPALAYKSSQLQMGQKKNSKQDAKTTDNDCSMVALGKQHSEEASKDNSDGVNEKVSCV
Chain of 5-hydroxytryptamine receptor 2A (P28223 whole entry): as the sequence (P28223 whole entry, looked up, one chain of several) above
Chain of 5-hydroxytryptamine receptor 2B (P41595 whole entry): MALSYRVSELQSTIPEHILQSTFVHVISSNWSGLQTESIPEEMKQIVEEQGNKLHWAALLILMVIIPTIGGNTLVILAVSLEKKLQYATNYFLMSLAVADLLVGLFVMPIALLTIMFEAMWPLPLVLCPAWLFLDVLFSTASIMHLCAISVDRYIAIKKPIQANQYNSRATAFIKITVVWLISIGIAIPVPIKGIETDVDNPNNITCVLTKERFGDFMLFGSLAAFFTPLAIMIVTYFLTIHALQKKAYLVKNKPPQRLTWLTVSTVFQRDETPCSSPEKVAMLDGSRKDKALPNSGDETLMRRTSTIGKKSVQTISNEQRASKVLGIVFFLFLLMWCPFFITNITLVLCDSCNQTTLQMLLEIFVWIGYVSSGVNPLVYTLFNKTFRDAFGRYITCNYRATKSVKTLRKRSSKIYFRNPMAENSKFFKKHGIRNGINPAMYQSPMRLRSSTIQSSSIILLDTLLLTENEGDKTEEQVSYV

As to `Cc1ncccc1Oc1ccc(NC(=O)N2CCc3c2cccc3C(F)(F)F)cn1`, the figures for the Ki in assay [1], in assay [2] and in assay [3] were greater than 10000 nM, 200 nM and greater than 10000 nM, respectively. Moreover, the Selectivity in assay [4] and in assay [5] was greater than 50 each time.

As to `Cc1ncccc1Oc1ccc(NC(=O)N2CCc3c(Cl)cccc32)cn1`, the results for the inhibition constant (Ki) in assay [1], in assay [2] and in assay [3] were greater than 10000 nM, 15.8 nM and 2510 nM, respectively. Moreover, the Reversal with Rattus norvegicus worked out at 6%. Besides, the Selectivity in assay [4] was greater than 630; in assay [5] it was 160.

Consider `CSc1cc2c(cc1C(F)(F)F)N(C(=O)Nc1ccc(Oc3cccnc3C)nc1)CC2`, for which the Ki in assay [1] was 251 nM; in assay [2], 0.398 nM; in assay [3], 39.8 nM. In addition, the Reversal in the assay on Rattus norvegicus came out at 31%. For the same compound, the values for the Selectivity in assay [4] and in assay [5] were 630 and 100, respectively.

For the compound `Cc1ccc2c(c1Br)CCN2C(=O)Nc1ccc(Oc2cccnc2C)nc1`, the inhibitory constant (Ki) was greater than 1000 nM in assay [1], 1.58 nM in assay [2] and 251 nM in assay [3]. The Reversal in the assay on Rattus norvegicus came out at 0%. Besides, the values for the Selectivity in assay [4] and in assay [5] were greater than 630 and 160, respectively.

As for `Cc1ncccc1Oc1ccc(NC(=O)N2CCc3ccccc32)cn1`, the inhibitory constant (Ki) was greater than 10000 nM in assay [1], 100 nM in assay [2] and 2000 nM in assay [3]. Further, the Selectivity in assay [4] is greater than 100; in assay [5], 20.

As to `Cc1cc2c(cc1Cl)N(C(=O)Nc1ccc(Oc3cccnc3C(C)C)nc1)CC2`, the inhibition constant (Ki) is 794 nM in assay [1], 126 nM in assay [2] and 200 nM in assay [3]. In addition, the Selectivity amounted to 6 in assay [4] and 2 in assay [5].

Regarding `Cc1ncccc1Oc1ccc(NC(=O)N2CCc3ccc(C(F)(F)F)cc32)cn1`, the inhibition constant (Ki) in assay [1] is 158 nM; in assay [2], 5.01 nM; in assay [3], 398 nM. Further, the Selectivity is 30 in assay [4] and 80 in assay [5].

With `Cc1ncccc1Oc1ccc(NC(=O)N2CCc3c2cc(Cl)c(C)c3Cl)cn1`, the Ki in assay [1] is 63.1 nM; in assay [2], 1 nM; in assay [3], 39.8 nM. Moreover, in the assay with Rattus norvegicus, the Reversal is listed as 85%. Moreover, the Selectivity was 60 in assay [4] and 40 in assay [5].

As for `COc1cc2c(cc1C(F)(F)F)N(C(=O)Nc1ccc(Oc3cccnc3C)nc1)CC2`, the results for the Selectivity in assay [4] and in assay [5] were 1300 and 80, respectively.

Turning to `Cc1cc2c(cc1Cl)CCN2C(=O)Nc1ccc(Oc2cccnc2C)nc1`, the Ki in assay [1] is 158 nM; in assay [2], 1.26 nM; in assay [3], 126 nM. Besides, in the assay with Rattus norvegicus, the Reversal came to 7.3%. In addition, the Selectivity stood at 130 in assay [4] and 100 in assay [5].

As to `Cc1cc2c(cc1Cl)N(C(=O)Nc1ccc(Oc3cccnc3C)nc1)CC2`, the Selectivity in assay [4] stood at 160; in assay [5], 100.

Consider `Cc1cc2c(cc1Cl)N(C(=O)Nc1ccc(Oc3cnccc3Cl)nc1)CC2`, for which the inhibition constant (Ki) was 15.8 nM in assay [1], 0.501 nM in assay [2] and 12.6 nM in assay [3]. Moreover, the Selectivity amounted to 30 in assay [4] and 25 in assay [5].

Regarding `COc1cc2c(cc1C(F)(F)F)N(C(=O)Nc1cnc(Oc3cccnc3C)cc1C)CC2`, the Ki in assay [1] is 631 nM; in assay [2], 200 nM; in assay [3], 251 nM. Further, the values for the Selectivity in assay [4] and in assay [5] were 3 and 1.3, respectively.

Turning to `Cc1cc2c(cc1Cl)N(C(=O)Nc1ccc(Oc3cnccc3C)nc1)CC2`, the inhibition constant (Ki) in assay [1] was 7.94 nM; in assay [2], 1 nM; in assay [3], 31.6 nM. For the same compound, the values for the Selectivity in assay [4] and in assay [5] were 8 and 30, respectively.

In the case of `Cc1cc2c(cc1C(F)(F)F)N(C(=O)Nc1ccc(Oc3cncnc3C)nc1)CC2`, the Ki in assay [1] is 79.4 nM; in assay [2], 2 nM; in assay [3], 12.6 nM. The values for the Selectivity in assay [4] and in assay [5] were 40 and 6, respectively.
